Source: US11173151B2, “Substituted triazole derivatives and uses thereof” (BAYER AKTIENGESELLSCHAFT, priority 2017, dated 2021)
Like-named read-outs stand apart in the source and are kept apart here.

Assays:
human V1a receptor = target: T1, human V1a receptor (Homo sapiens, UniProt P37288); assay: Cellular in vitro assay for determining vasopressin receptor activity, V1a receptor cell line (CHO, aequorin luminescence); assay type: cell-based; settings: for IC50: CHO cell line transfected with human V1a receptor, [Arg]-vasopressin at EC50 concentration, read-out: IC50 hV1a; for ratio IC50 hV2/hV1a: selectivity ratio IC50 hV2 / IC50 hV1a
T1 construct: expressed in transfected cells; host or cells: CHO K1 (ATCC), also stably transfected with a modified aequorin
Procedure, shortened: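 IC50 from inhibition of [Arg]-vasopressin (EC50 concentration)-evoked aequorin luminescence in CHO K1 cells, with 10-min compound pretreatment.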

human V2 receptor = target: T2, human V2 receptor (Homo sapiens, UniProt P30518); assay: Cellular in vitro assay for determining vasopressin receptor activity, V2 receptor cell line (CHO, CRE-luciferase); assay type: cell-based; settings: CHO cell line transfected with human V2 receptor, [Arg8]-vasopressin at EC50 concentration, read-out: IC50 hV2
T2 construct: expressed in transfected cells; host or cells: CHO K1 (ATCC) expressing firefly luciferase under a CRE-responsive promoter
T2 sequence (P30518 whole entry): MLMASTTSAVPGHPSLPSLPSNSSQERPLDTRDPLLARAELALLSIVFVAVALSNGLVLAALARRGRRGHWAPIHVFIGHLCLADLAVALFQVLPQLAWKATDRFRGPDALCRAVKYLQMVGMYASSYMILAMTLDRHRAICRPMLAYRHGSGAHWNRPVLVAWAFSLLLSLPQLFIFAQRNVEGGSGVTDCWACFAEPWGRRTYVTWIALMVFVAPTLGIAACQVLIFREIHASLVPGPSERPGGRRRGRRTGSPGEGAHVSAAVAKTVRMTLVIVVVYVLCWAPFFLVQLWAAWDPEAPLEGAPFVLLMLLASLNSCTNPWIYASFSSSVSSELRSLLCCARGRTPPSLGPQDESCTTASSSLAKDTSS

T1 sequence (P37288 whole entry): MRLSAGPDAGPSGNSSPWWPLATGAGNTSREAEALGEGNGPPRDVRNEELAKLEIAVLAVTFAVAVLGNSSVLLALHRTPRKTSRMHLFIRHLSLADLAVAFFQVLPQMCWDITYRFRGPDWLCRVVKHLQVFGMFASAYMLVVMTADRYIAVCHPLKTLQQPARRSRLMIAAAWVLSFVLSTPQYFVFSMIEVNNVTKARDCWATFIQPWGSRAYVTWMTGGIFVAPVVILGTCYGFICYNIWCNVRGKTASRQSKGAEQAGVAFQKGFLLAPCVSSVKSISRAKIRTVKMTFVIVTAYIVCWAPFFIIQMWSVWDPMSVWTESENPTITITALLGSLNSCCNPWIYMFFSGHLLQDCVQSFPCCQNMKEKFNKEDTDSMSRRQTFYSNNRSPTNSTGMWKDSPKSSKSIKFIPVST

SMILES	IC50 (human V1a receptor) [µM]	ratio IC50 hV2/hV1a (human V1a receptor)	IC50 (human V2 receptor; 3 hours) [µM]	IC50 (human V2 receptor) [µM]
NC(=O)[C@@H]1CC(F)(F)CN1C(=O)c1cccc(Cl)c1-n1cnc(Cn2nc(-c3ccc(Cl)cc3)n(C[C@H](O)C(F)(F)F)c2=O)n1 [Example 372, 1-{3-Chloro-2-[3-({3-(4-chlorophenyl)-5-oxo-4-[(2S)-3,3,3-trifluoro-2-hydroxypropyl]-4,5-dihydro-1H-1,2,4-triazol-1-yl}methyl)-1H-1,2,4-triazol-1-yl]benzoyl}-4,4-difluoro-L-prolinamide]	0.0525	64.8	3.4	
O=C(NC1CC1F)c1cccc(Cl)c1-n1cnc(Cn2nc(-c3ccc(Cl)cc3)n(C[C@H](O)C(F)(F)F)c2=O)n1 (stereo partly drawn) [Example 373, 3-Chloro-2-[3-({3-(4-chlorophenyl)-5-oxo-4-[(2S)-3,3,3-trifluoro-2-hydroxypropyl]-4,5-dihydro-1H-1,2,4-triazol-1-yl}methyl)-1H-1,2,4-triazol-1-yl]-N-[2-fluorocyclopropyl]benzamide]	0.00475	216.8	1.03	
O=C(c1cccc(Cl)c1-n1cnc(Cn2nc(-c3ccc(Cl)cc3)n(C[C@H](O)C(F)(F)F)c2=O)n1)N1CCC(F)(F)C1 [Example 374, 2-[(1-{2-Chloro-6-[(3,3-difluoropyrrolidin-1-yl)carbonyl]phenyl}-1H-1,2,4-triazol-3-yl)methyl]-5-(4-chlorophenyl)-4-[(2S)-3,3,3-trifluoro-2-hydroxypropyl]-2,4-dihydro-3H-1,2,4-triazol-3-one]	0.0475	30.5	1.45	
CC1(C)CN(C(=O)c2cccc(Cl)c2-n2cnc(Cn3nc(-c4ccc(Cl)cc4)n(C[C@H](O)C(F)(F)F)c3=O)n2)CCO1 [Example 375, 2-[(1-{2-Chloro-6-[(2,2-dimethylmorpholin-4-yl)carbonyl]phenyl}-1H-1,2,4-triazol-3-yl)methyl]-5-(4-chlorophenyl)-4-[(2S)-3,3,3-trifluoro-2-hydroxypropyl]-2,4-dihydro-3H-1,2,4-triazol-3-one]	0.71	29.6	21	
O=C(NC1CC(F)(F)C1)c1cccc(Cl)c1-n1cnc(Cn2nc(-c3ccc(Cl)cc3)n(C[C@H](O)C(F)(F)F)c2=O)n1 [Example 376, 3-Chloro-2-[3-({3-(4-chlorophenyl)-5-oxo-4-[(2S)-3,3,3-trifluoro-2-hydroxypropyl]-4,5-dihydro-1H-1,2,4-triazol-1-yl}methyl)-1H-1,2,4-triazol-1-yl]-N-(3,3-difluorocyclobutyl)benzamide]	0.0735	7.8	0.57	
O=C(c1cccc(Cl)c1-n1cnc(Cn2nc(-c3ccc(Cl)cc3)n(C[C@H](O)C(F)(F)F)c2=O)n1)N1CCCCC1 [Example 381, 5-(4-Chlorophenyl)-2-({1-[2-chloro-6-(piperidin-1-ylcarbonyl)phenyl]-1H-1,2,4-triazol-3-yl}methyl)-4-[(2S)-3,3,3-trifluoro-2-hydroxypropyl]-2,4-dihydro-3H-1,2,4-triazol-3-one]	0.017	132.4	2.25	
O=C(c1cccc(Cl)c1-n1cnc(Cn2nc(-c3ccc(Cl)cc3)n(C[C@H](O)C(F)(F)F)c2=O)n1)N1CCOCC1 [Example 382, 2-({1-[2-Chloro-6-(morpholin-4-ylcarbonyl)phenyl]-1H-1,2,4-triazol-3-yl}methyl)-5-(4-chlorophenyl)-4-[(2S)-3,3,3-trifluoro-2-hydroxypropyl]-2,4-dihydro-3H-1,2,4-triazol-3-one]	0.078	80.1	6.25	
O=C(c1cccc(Cl)c1-n1cnc(Cn2nc(-c3ccc(Cl)cc3)n(C[C@H](O)C(F)(F)F)c2=O)n1)N1CCC[C@H]1C(F)(F)F [Example 383, 5-(4-Chlorophenyl)-2-{[1-(2-chloro-6-{[(2S)-2-(trifluoromethyl)pyrrolidin-1-yl]carbonyl}phenyl)-1H-1,2,4-triazol-3-yl]methyl}-4-[(2S)-3,3,3-trifluoro-2-hydroxypropyl]-2,4-dihydro-3H-1,2,4-triazol-3-one]	0.435	17.8	7.75	
O=C(c1cccc(Cl)c1-n1cnc(Cn2nc(-c3ccc(Cl)cc3)n(C[C@H](O)C(F)(F)F)c2=O)n1)N1CCC[C@@H]1C(F)(F)F [Example 384, 5-(4-Chlorophenyl)-2-{[1-(2-chloro-6-{[(2R)-2-(trifluoromethyl)pyrrolidin-1-yl]carbonyl}phenyl)-1H-1,2,4-triazol-3-yl]methyl}-4-[(2S)-3,3,3-trifluoro-2-hydroxypropyl]-2,4-dihydro-3H-1,2,4-triazol-3-one]	0.111	17.9	2	
O=C(c1cccc(Cl)c1-n1cnc(Cn2nc(-c3ccc(Cl)cc3)n(C[C@H](O)C(F)(F)F)c2=O)n1)N1CCS(=O)(=O)CC1 [Example 385, 2-[(1-{2-Chloro-6-[(1,1-dioxidothiomorpholin-4-yl)carbonyl]phenyl}-1H-1,2,4-triazol-3-yl)methyl]-5-(4-chlorophenyl)-4-[(2S)-3,3,3-trifluoro-2-hydroxypropyl]-2,4-dihydro-3H-1,2,4-triazol-3-one]	0.435	22.0	9.55	
CN(CC1CC1)C(=O)c1cccc(Cl)c1-n1cnc(Cn2nc(-c3ccc(Cl)cc3)n(C[C@H](O)C(F)(F)F)c2=O)n1 [Example 387, 3-Chloro-2-[3-({3-(4-chlorophenyl)-5-oxo-4-[(2S)-3,3,3-trifluoro-2-hydroxypropyl]-4,5-dihydro-1H-1,2,4-triazol-1-yl}methyl)-1H-1,2,4-triazol-1-yl]-N-(cyclopropylmethyl)-N-methylbenzamide]	0.0925	36.8	3.4	
CC1(NC(=O)c2cccc(Cl)c2-n2cnc(Cn3nc(-c4ccc(Cl)cc4)n(C[C@H](O)C(F)(F)F)c3=O)n2)CC1 [Example 388, 3-Chloro-2-[3-({3-(4-chlorophenyl)-5-oxo-4-[(2S)-3,3,3-trifluoro-2-hydroxypropyl]-4,5-dihydro-1H-1,2,4-triazol-1-yl}methyl)-1H-1,2,4-triazol-1-yl]-N-(1-methylcyclopropyl)benzamide]	0.00715	216.8	1.55	
NC(=O)[C@H]1CC(F)(F)CN1C(=O)c1cccc(Cl)c1-n1cnc(Cn2nc(-c3ccc(Cl)cc3)n(C[C@H](O)C(F)(F)F)c2=O)n1 [Example 391, 1-{3-Chloro-2-[3-({3-(4-chlorophenyl)-5-oxo-4-[(2S)-3,3,3-trifluoro-2-hydroxypropyl]-4,5-dihydro-1H-1,2,4-triazol-1-yl}methyl)-1H-1,2,4-triazol-1-yl]benzoyl}-4,4-difluoro-D-prolinamide]	0.052	65.4	3.4	
O=C(NCCC(F)(F)F)c1cccc(Cl)c1-n1cnc(Cn2nc(-c3ccc(Cl)cc3)n(C[C@H](O)C(F)(F)F)c2=O)n1 [Example 392, 3-Chloro-2-[3-({3-(4-chlorophenyl)-5-oxo-4-[(2S)-3,3,3-trifluoro-2-hydroxypropyl]-4,5-dihydro-1H-1,2,4-triazol-1-yl}methyl)-1H-1,2,4-triazol-1-yl]-N-(3,3,3-trifluoropropyl)benzamide]	0.0225	12.4	0.28	
O=C(NC1CC1)c1cccc(Cl)c1-n1cnc(Cn2nc(-c3ccc(Cl)cc3)n(C[C@@H](O)C(F)(F)F)c2=O)n1 [Example 393, 3-Chloro-2-[3-({3-(4-chlorophenyl)-5-oxo-4-[(2R)-3,3,3-trifluoro-2-hydroxypropyl]-4,5-dihydro-1H-1,2,4-triazol-1-yl}methyl)-1H-1,2,4-triazol-1-yl]-N-cyclopropylbenzamide]	0.0165	369.7	6.1	
O=C(NCC1CC1)c1cccc(Cl)c1-n1cnc(Cn2nc(-c3ccc(Cl)cc3)n(C[C@@H](O)C(F)(F)F)c2=O)n1 [Example 394, 3-Chloro-2-[3-({3-(4-chlorophenyl)-5-oxo-4-[(2R)-3,3,3-trifluoro-2-hydroxypropyl]-4,5-dihydro-1H-1,2,4-triazol-1-yl}methyl)-1H-1,2,4-triazol-1-yl]-N-(cyclopropylmethyl)benzamide]	0.295	14.9	4.4	
NC(=O)[C@@H]1CC(F)(F)CN1C(=O)c1cccc(Cl)c1-n1cnc(Cn2nc(-c3ccc(Cl)cc3)n(C[C@@H](O)C(F)(F)F)c2=O)n1 [Example 396, 1-{3-Chloro-2-[3-({3-(4-chlorophenyl)-5-oxo-4-[(2R)-3,3,3-trifluoro-2-hydroxypropyl]-4,5-dihydro-1H-1,2,4-triazol-1-yl}methyl)-1H-1,2,4-triazol-1-yl]benzoyl}-4,4-difluoro-L-prolinamide]	0.301	106.3	32	
O=C(c1cccc(Cl)c1-n1cnc(Cn2nc(-c3ccc(Cl)cc3)n(C[C@@H](O)C(F)(F)F)c2=O)n1)N1CCC(F)(F)C1 [Example 398, 2-[(1-{2-Chloro-6-[(3,3-difluoropyrrolidin-1-yl)carbonyl]phenyl}-1H-1,2,4-triazol-3-yl)methyl]-5-(4-chlorophenyl)-4-[(2R)-3,3,3-trifluoro-2-hydroxypropyl]-2,4-dihydro-3H-1,2,4-triazol-3-one]	0.44	50.0		22
